Source: patent US20100003217A1, “Compounds and Pharmaceutical Compositions for the Treatment of Viral Infections” (priority 2008, published 2010)

Tests used:
[1] = Metabolite profile in rat urine; format: in vivo, male Sprague-Dawley rats; details: for Percent of Dose, Urine 0-24 h: after [14C]Compound 1
Procedure: Pooled urine samples were prepared for Groups 1C and 2C by mixing a fixed percent of the total volume for all four animals from the selected time points. For Group 1C, samples of the 1-, 2-, 6-, and 24-h collection intervals were pooled. For Group 2C, a pool of samples from all four animals was prepared for the 24 h collection intervals only. For 1-, 2-, and 6 h collection intervals, a urine sample of a single animal of Group 2A or 2B was used for analysis. All samples were brought to room temperature and vortexed briefly. The samples were diluted as necessary (2- to 20-fold) with appropriate aqueous mobile phase for the selected HPLC method. The pooled and diluted samples from the 24 h collection interval were centrifuged at 2040×g for 10 minutes. All other samples were analyzed without centrifugation. HPLC method 1 was used for HPLC profiling. Selected samples were analyzed by HPLC method 2 for comparison with the metabolite profile generated by microsomal and hepatocyte incubations (Examples 14 and 15) and with the metabolite profile of liver extracts.
Percent of the administered dose (% AD) for parent drug and each metabolite at each collection period=(% of the total radioactivity in the sample attributed to the metabolite)*(total radioactivity expressed as % of the administered dose, recovered during the corresponding collection period).
HPLC analyses of pooled urine samples of all time points were conducted for Group 1C. Metabolites R1, R2, R3, R4, R5, R6, R7 and R8 were characterized based on retention time.
For the PO dose group, a pooled urine sample from the 24-h collection time was analyzed. For 1-, 2-, and 6-h collection times, the majority of the samples had been used for radioanalysis. The remaining samples were insufficient for proportional pooling. Therefore, single animal samples of […] groups were used for HPLC profiling. Metabolites R^1, R^2, R^3, R^4, R^5, R^6, R^7 and R^8 were characterized based on retention time.
Table 50 contains data from single animal samples and pooled samples. To estimate overall distribution of urinary metabolites, it was assumed that the profile from a single animal is reflective of the overall average metabolite profile. Therefore, HPLC distribution data from single animals was used to calculate the percentage of administered dose excreted as various metabolites during the 1-, 2-, and 6-h collection intervals. Metabolites R1, R2, R3, R4, R5, R6, R7 and R8 were characterized based on retention time.

[2] = Stability in human liver microsomes; format: in vitro ADME; details: human liver microsomes 1 mg/mL, 15 min, 10 μM
Procedure: (§1) Disappearance of parent Compound 1 was used to evaluate the in vitro metabolism thereof. Relative levels of unchanged Compound 1 were measured by HPLC-UV method 1. Residual Compound 1 is reported as percent difference from time zero or control. The HPLC-UV system was as follows:
Incubations with liver microsomes or cytosol were conducted in a final volume of 0.1 mL per incubation time point. […] The microsomal reaction was initiated by the addition of NADPH (3 mM final concentration). Incubations with (a) no protein or (b) no NADPH served as controls. Reactions were terminated by the addition of 0.2 mL of stop solution (acetonitrile). The samples were vortex-mixed for 30 sec and then centrifuged at 10,000×g for 10 min. The supernatant was dried using a Labconco CentriVap concentrator and the dry residue reconstituted in water, transferred to an HPLC glass vial and analyzed by HPLC-UV method 1 (described above).
(§2) Metabolic stability of the proposed metabolites was conducted by incubating the chemically synthesized standards Compound 2, Compound 4 and Compound 3 as described above for Compound 1. When possible, formation of Compound 5 was verified by incubating samples with alkaline phosphatase (10 U) for 60 min at 37° C.

[3] = Stability in monkey liver microsomes; format: in vitro ADME; details: monkey liver microsomes 1 mg/mL, 15 min, 10 μM
Procedure: as §1
(§3) Incubations with liver microsomes or cytosol were conducted in a final volume of 0.1 mL per incubation time point. […] DMSO (final DMSO concentration was 0.1%) was incubated at 37° C. from 0-60 min with pooled microsomal protein (1.0 mg/mL), suspended in incubation buffer (0.1 M potassium phosphate, pH 7.4, 5 mM MgCl2, and 0.1 mM EDTA). The microsomal reaction was initiated by the addition of NADPH (3 mM final concentration). Incubations with (a) no protein or (b) no NADPH served as controls. Reactions were terminated by the addition of 0.2 mL of stop solution (acetonitrile). The samples were vortex-mixed for 30 sec and then centrifuged at 10,000×g for 10 min. The supernatant was dried using a Labconco CentriVap concentrator and the dry residue reconstituted in water, transferred to an HPLC glass vial and analyzed by HPLC-UV method 1 (described above).
as §2

pig liver esterase = test: Incubation with pig liver esterase; format: in vitro ADME; details: Esterase 14 U, 60 min, 10 μM
Procedure: Pig liver esterase (14 U) suspended in incubation buffer (0.1 M potassium phosphate, pH 7.4) was incubated for 60 min at 37° C. with 10 μM Compound 1 from a stock solution in DMSO (final DMSO concentration was 0.1%); reaction was initiated with the addition of test article. Incubations with no protein served as controls. Reactions were terminated by the addition of 0.1 mL of stop solution (acetonitrile). The samples were vortex-mixed for 30 sec and then centrifuged at 10,000×g for 10 min. The supernatant was dried using a Labconco CentriVap concentrator and the dry residue reconstituted in water, transferred to an HPLC glass vial and analyzed by HPLC-UV method 2 (described above).
as §2

[4] = Excretion of administered dose in rat urine and feces; format: in vivo, male Sprague-Dawley rats; details: IV; 24 h after [14C]Compound 1
[5] = Stability in rat liver microsomes; format: in vitro ADME; details: rat liver microsomes 1 mg/mL, 15 min, 10 μM
Procedure: as §1, §3, §2

[6] = PO dose urine, 2 h collection, single animal (#20, Group 2B)
[7] = group 1C (IV dose) pooled urine, 1 h collection
[8] = group 1C (IV dose) pooled urine, 2 h collection
[9] = group 1C (IV dose) pooled urine, 6 h collection
[10] = group 1C (IV dose) pooled urine, 24 h collection

## C[C@@]1(O)[C@H](O)[C@@H](COP(=O)(O)NCc2ccccc2)O[C@H]1n1cnc2c(=O)[nH]c(N)nc21 [Compound 2, [(2R)-2-methyl-β-D-ribofuranosyl]guanine-N-benzylaminyl-5′-monophosphate]
[1]; IV
  Percent of Dose, Urine 0-24 h: 0.76% of Dose
[1]; Oral
  Percent of Dose, Urine 0-24 h: 0.001% of Dose
[1]; [6]
  % AD (percent of administered dose): 0.002 % AD
  % HPLC (percent of HPLC peak area in the sample extract): 1.81%
[1]; estimated profile, group 2C (PO dose) urine
  % of total urinary excretion, estimated: 0.03%
[1]; estimated profile, group 2C (PO dose) urine, 2 h, from single animal HPLC distribution and mean % AD
  % AD, estimated: 0.001 % AD
[1]; estimated profile, group 2C (PO dose) urine, 2 h, single animal % HPLC distribution
  % HPLC (percent of HPLC peak area in the sample extract): 1.81%
[1]; estimated profile, group 2C (PO dose) urine, total of all collections
  Total % AD, estimated: 0.001 % AD
[1]; [7]
  % AD (percent of administered dose): 0.52 % AD
  % HPLC (percent of HPLC peak area in the sample extract): 2.29%
[1]; [8]
  % AD (percent of administered dose): 0.13 % AD
  % HPLC (percent of HPLC peak area in the sample extract): 2.57%
[1]; [9]
  % AD (percent of administered dose): 0.03 % AD
  % HPLC (percent of HPLC peak area in the sample extract): 1.40%
[1]; [10]
  % AD (percent of administered dose): 0.07 % AD
  % HPLC (percent of HPLC peak area in the sample extract): 0.45%
[1]; group 1C (IV dose) urine
  % of total urinary excretion: 1.62%
[1]; group 1C (IV dose) urine, total of all collections
  Total % AD: 0.76 % AD
[2]; NADPH
  % Residual Compound 2: 0%
[2]; No Cofactor
  % Residual Compound 2: 0%
[3]; NADPH
  % Residual Compound 2: 19%
[3]; No Cofactor
  % Residual Compound 2: 0%
Pig liver esterase
  Residual compound following incubation with pig liver esterase: 0%
[4]
  Percent of Dose, Total (urine, feces and liver): 0.76% of Dose
[5]; NADPH
  % Residual Compound 2: 0%
[5]; No Cofactor
  % Residual Compound 2: 0%
